Assay results reported in publication PMC9686657, “Protection against Oxidative Stress and Metabolic Alterations by Synthetic Peptides Derived from Erythrina edulis Seed Protein” (Antioxidants, 2022).
Read-outs that look alike come from different tables or passages of the source. Ends that are not written are not given here. Peptide text beside a SMILES is read from it.

How the values were obtained:
[1] = target: T1, ACE from rabbit lung (Oryctolagus cuniculus, UniProt P12822); assay: ACE inhibitory activity (HHL substrate); assay type: biochemical; conditions: n.d. = activity not detected; mean ± SD; read-out: ACE Inhibition (IC50)
T1 construct: ACE from rabbit lung; purchased Sigma-Aldrich; host or cells: rabbit lung tissue
T1 sequence (P12822 34-1310): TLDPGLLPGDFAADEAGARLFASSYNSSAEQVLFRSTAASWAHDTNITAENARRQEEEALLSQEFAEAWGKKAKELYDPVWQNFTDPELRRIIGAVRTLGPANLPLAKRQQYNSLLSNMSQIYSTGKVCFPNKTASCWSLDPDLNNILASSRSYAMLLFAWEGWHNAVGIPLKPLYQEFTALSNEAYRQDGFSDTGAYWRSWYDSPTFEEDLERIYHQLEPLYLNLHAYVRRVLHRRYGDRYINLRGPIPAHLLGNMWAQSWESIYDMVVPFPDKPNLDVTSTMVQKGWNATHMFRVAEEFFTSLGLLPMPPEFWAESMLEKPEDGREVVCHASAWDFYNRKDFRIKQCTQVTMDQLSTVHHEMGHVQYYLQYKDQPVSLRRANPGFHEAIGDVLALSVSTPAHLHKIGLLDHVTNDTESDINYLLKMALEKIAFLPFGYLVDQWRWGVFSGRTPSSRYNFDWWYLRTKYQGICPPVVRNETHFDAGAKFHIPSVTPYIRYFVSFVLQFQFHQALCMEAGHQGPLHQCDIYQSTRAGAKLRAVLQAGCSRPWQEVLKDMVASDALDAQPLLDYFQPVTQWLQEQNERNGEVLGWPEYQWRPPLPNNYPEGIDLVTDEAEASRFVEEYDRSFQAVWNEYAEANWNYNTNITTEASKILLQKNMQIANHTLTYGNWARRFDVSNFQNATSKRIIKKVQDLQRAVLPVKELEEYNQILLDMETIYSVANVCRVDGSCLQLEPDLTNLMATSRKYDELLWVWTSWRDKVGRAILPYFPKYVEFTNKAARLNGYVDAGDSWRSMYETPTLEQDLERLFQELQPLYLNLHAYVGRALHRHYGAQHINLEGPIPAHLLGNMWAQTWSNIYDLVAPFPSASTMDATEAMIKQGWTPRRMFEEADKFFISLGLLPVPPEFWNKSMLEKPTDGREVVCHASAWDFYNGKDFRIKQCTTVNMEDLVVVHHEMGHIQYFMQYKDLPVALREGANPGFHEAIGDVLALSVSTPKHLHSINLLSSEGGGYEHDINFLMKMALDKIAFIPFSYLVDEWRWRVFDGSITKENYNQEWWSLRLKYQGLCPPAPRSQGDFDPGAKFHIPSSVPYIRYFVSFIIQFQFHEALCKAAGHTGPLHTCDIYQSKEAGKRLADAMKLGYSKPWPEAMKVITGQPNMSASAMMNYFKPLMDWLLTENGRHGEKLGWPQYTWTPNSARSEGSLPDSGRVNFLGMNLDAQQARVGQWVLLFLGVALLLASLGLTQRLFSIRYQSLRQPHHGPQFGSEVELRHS
Experimental: The in vitro ACE inhibitory activity of peptides was measured following the methodology described by Hayakari et al., with some modifications. […] It was incubated at 37 °C for 60 min. […] Three independent runs were performed for each sample.

[2] = target: T2, DPP-IV (Homo sapiens, UniProt P27487); assay: DPP-IV inhibitory activity (Inhibitor Screening Kit MAK203); assay type: biochemical; conditions: n.d. = activity not detected; mean ± SD; read-out: DPP-IV Inhibition (IC50)
T2 construct: purchased Sigma-Aldrich MAK203
Experimental: The DPP-IV inhibitory activity was determined using the DPP-IV Inhibitor Screening Kit MAK203, according to the manufacturer’s instructions. […] After this time, the fluorescence was measured each 2 min at λexcitation and λemission of 360 and 460 nm, respectively, in the Infinite M200 Pro plate reader (Tecan Group AG). Three independent runs were performed for each sample. The results were expressed as IC50 value.

[3] = test system: SH-SY5Y cells; assay: Cell viability, MTT assay; assay type: cell-based, human; conditions: basal conditions, highest concentration 100 µM, 24 h; data not shown
Experimental: Human neuroblastoma SH-SY5Y cells were obtained from the American Type Culture Collection (ATCC, […], Rockville, MD, USA) and grown in RPMI-1640 medium supplemented with 10% FBS, 2 mM L-glutamine, 1 mM sodium pyruvate, 1 mM NEAA, and 50 μg/mL gentamicin in a humidified incubator containing 5% CO2 and 95% air at 37 °C.
The effects of pajuro-derived peptides on cell viability were determined using the MTT assay, following the protocol previously described by Palma-Albino et al.. SH-SY5Y cells were seeded (2 × 10^4 cells/well) onto 96-well plates in complete medium with 1% FBS and incubated at 37 °C for 16 h. After discarding the culture medium, the peptide sample was added (at concentration of 10, 25, and 100 µM), and the plate was incubated for 24 h. Upon removing the supernatant, a MTT solution (2 mg/mL) was added, and the plate was incubated for 60 min at 37 °C. After this time, the supernatant was discarded, and the formazan crystals were dissolved in dimetilsulfoxide (DMSO). The absorbance was measured at 570 nm in the Infinite M200 Pro plate reader (Tecan Group AG). Three independent runs were performed for each sample. The results were expressed as percentage of the control, considered as 100%.

[4] = test system: T3, α-amylase type VI-B from porcine pancreas; assay: α-amylase inhibition assay; assay type: biochemical; conditions: control acarbose at 10 mM
T3 construct: α-amylase type VI-B from porcine pancreas; purchased Sigma-Aldrich; host or cells: porcine pancreas tissue
Experimental: The α-amylase inhibition assay was carried out following the methods described by Subramanian et al. and Kumar et al., with some modifications. Then, 200 µL of mixture, containing α-amylase (800 mU), 0.125% starch, and peptide (100 µM) or standard (at different concentrations) in 0.1 M phosphate buffer (pH 6.9), was incubated at 37 °C for 30 min. After adding 100 µL of a solution containing 1% 3,5-dinitrosalicylic acid and 30% sodium potassium tartrate in 0.4 M NaOH, shaking, and incubating at 100 °C for 10 min, the absorbance was measured at 540 nm in an Infinite M200 Pro plate reader (Tecan Group AG). Three independent runs were performed for each sample. The results were expressed as percentage of the negative control, considered as 100%.

[5] = test system: α-glucosidase from Saccharomyces cerevisiae; assay: α-glucosidase inhibitory activity; assay type: biochemical; conditions: control acarbose at 10 mM
Experimental: The α-glucosidase inhibitory activity was determined as previously reported, with some modifications. […] Three independent runs were performed for each sample. The results were expressed as percentage of the negative control, considered as 100%.

[6] = test system: T4, porcine pancreatic lipase type II; assay: Pancreatic lipase inhibitory activity; assay type: biochemical; conditions: control orlistat at 0.5 µM
T4 construct: porcine pancreatic lipase type II; purchased Sigma-Aldrich; host or cells: porcine pancreas tissue
Experimental: The pancreatic lipase inhibitory activity was determined following the protocols previously described, with some modifications. […] Three independent runs were performed for each sample. The results were expressed as percentage of the negative control, considered as 100%.

[7] = target: α-glucosidase; conditions: ref Vilcacundo et al. [46]; read-out: α-glucosidase inhibitory capacity (IC50); cited from earlier work
[8] = target: T2, DPP-IV; conditions: literature value; cited from earlier work

T2 sequence (P27487 whole entry): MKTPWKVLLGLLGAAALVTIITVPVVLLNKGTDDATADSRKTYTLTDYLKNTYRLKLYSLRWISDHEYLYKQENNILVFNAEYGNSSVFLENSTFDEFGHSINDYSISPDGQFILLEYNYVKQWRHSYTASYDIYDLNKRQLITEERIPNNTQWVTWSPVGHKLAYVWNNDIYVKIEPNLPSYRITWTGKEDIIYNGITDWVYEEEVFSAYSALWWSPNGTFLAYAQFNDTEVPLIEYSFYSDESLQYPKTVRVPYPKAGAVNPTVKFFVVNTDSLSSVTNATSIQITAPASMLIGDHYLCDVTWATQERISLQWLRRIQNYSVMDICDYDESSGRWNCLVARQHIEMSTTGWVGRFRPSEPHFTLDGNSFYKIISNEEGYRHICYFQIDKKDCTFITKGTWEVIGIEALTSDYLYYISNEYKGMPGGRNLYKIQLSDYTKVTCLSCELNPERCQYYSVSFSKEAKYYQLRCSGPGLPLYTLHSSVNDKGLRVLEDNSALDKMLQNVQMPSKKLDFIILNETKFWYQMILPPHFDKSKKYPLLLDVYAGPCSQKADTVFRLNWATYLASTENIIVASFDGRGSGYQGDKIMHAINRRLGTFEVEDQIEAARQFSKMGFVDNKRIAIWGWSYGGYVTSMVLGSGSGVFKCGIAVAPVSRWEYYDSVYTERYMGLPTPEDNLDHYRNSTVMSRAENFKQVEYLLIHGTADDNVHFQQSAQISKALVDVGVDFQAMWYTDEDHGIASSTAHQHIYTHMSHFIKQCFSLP

IC50 [1] [µM] | IC50 [2] [µM] | Compound | effect on cell viability (cytotoxicity) [3] | also measured
 |  | C[C@H]1O[C@H](O[C@H]2[C@H](O)[C@@H](O)[C@@H](O[C@H]3[C@H](O)[C@@H](O)C(O)O[C@@H]3CO)O[C@@H]2CO)[C@H](O)[C@@H](O)[C@@H]1N[C@H]1C=C(CO)[C@@H](O)[C@H](O)[C@H]1O (stereo partly shown) [acarbose] |  | α-Amylase Inhibition [4]: 75.05 ± 1.55%; α-Glucosidase Inhibition [5]: 62.36 ± 0.54%
 |  | CCCCCCCCCCC[C@@H](C[C@@H]1OC(=O)[C@H]1CCCCCC)OC(=O)[C@H](CC(C)C)NC=O [orlistat] |  | Pancreatic lipase Inhibition [6]: 94.62 ± 0.90%
 | 131 ± 2.34 | AALWE [AALWE] | None of them, at the highest concentration assayed (100 µM), affected the cell viability | 
82.6 ± 0.58 |  | DGLGYY [DGLGYY] | None of them, at the highest concentration assayed (100 µM), affected the cell viability | 
 |  | IQAEGGLT |  | IC50 [7]: 110 µM
 | 214 ± 2.83 | MFTGPY [MFTGPY] | None of them, at the highest concentration assayed (100 µM), affected the cell viability | 
50.5 ± 0.95 |  | SQLPGW [SQLPGW] | None of them, at the highest concentration assayed (100 µM), affected the cell viability | 
 |  | diprotin A |  | IC50 [8]: 24.7 µM

Compound | IC50 [1] [µM] | IC50 [2] [µM] | effect on cell viability (cytotoxicity) [3] | also measured
N[C@@H](Cc1ccc(O)cc1)C(=O)N1CCC[C@H]1C(=O)N[C@@H](CO)C(=O)N[C@@H](Cc1ccc(O)cc1)C(=O)O [YPSY] (H-YPSY-OH; N-terminus and C-terminus assumed) | 115.6 ± 0.26 | 32.6 ± 1.6 | None of them, at the highest concentration assayed (100 µM), affected the cell viability | 
